Drawing on US20230292750A1, “INSECT REPELLENT PATCHES AND TUBULAR ARTICLES” (ACHIEVE EQUINE LLC, priority 2020, published 2023), this text covers adhesion and tack for two compounds.

A short description of data set [1]: Adhesion Test (reservoir layer to support film). It is filed as physicochemical. Set-up: key: A positive (+) result for adhesion indicates the carrier cohesively failed with transfer of polymer carrier material of the reservoir layer to the support film. The settings on record: Camie SBR carrier (CAMIE 390B); repellent 2% in dry carrier, coated on PET tape. Here is the method: Samples of 0.75 inch (19 mm) diameter were coated in circular molds onto the PET tape to a dry thickness of approximately 0.020 inch (0.51 mm). The insect repellent was formulated at 2% within the dry carrier. Subsequent to coating, the samples were first allowed to air dry at room temperature for approximately 1 hour, then placed in a heated air convection oven at approximately […] for several hours. Upon removal, samples sat overnight before evaluation. A sharpened to a point like a flat wooden dowel (approximately 3 mm diameter) was used to separate the reservoir layer/support film coating interface. The sharpened end of the wooden dowel was applied under hand pressure at the interface in an attempt to separate the reservoir layer from the support film. A positive (+) result for adhesion indicates the carrier cohesively failed with transfer of polymer carrier material of the reservoir layer to the support film.

Data set [2] is described as follows: Tack Test (wooden dowel probe on reservoir layer). It is filed as physicochemical. Set-up: key: A positive (+) result for tack indicates there was no transfer of the carrier polymer of the reservoir layer to the probe (adhesive failure). The following applies: repellent 2% in dry carrier, coated on PET tape. As for the experimental part:
Samples of 0.75 inch (19 mm) diameter were coated in circular molds onto the PET tape to a dry thickness of approximately 0.020 inch (0.51 mm). The insect repellent was formulated at 2% within the dry carrier. Subsequent to coating, the samples were first allowed to air dry at room temperature for approximately 1 hour, then placed in a heated air convection oven at approximately […] for several hours. Upon removal, samples sat overnight before evaluation. As a measure of tack, the surface of the coated formulation was probed with the flat end of a wooden dowel The wooden dowel was applied under hand pressure to the surface of the reservoir layer for 1 second long in contact. A positive (+) result for tack indicates there was no transfer of the carrier polymer of the reservoir layer to the probe (adhesive failure).

Where [3] appears, read: Bostik EVA carrier (comparative).

The structures appear in SMILES notation.

As to `CCN(CC)C(=O)c1cccc(C)c1` [Deet, N,N-diethyl-meta-toluamide], the adhesion result in data set [1] is “+ +”. Moreover, the figures for the tack result in data set [2] (setting [3]) and in data set [2] (Camie SBR carrier (CAMIE 390B)) were “+” and “+ +”, respectively.

For the compound `CC(C)=CCC/C(C)=C/CO` [Geraniol], the adhesion result in data set [1] is “+ +”. In addition, the tack entry in data set [2] (setting [3]) is “+”; in data set [2] (Camie SBR carrier (CAMIE 390B)) it was “+ +”.
